From ChEMBL document CHEMBL1138642, “In vitro advanced antimycobacterial screening of cobalt(II) and copper(II) complexes of fluorinated isonicotinoylhydrazones” (2004)
Converted amounts (≈) assume the structure as drawn.

Columns and labels:
Assay type in all cases: functional
[1] = tested on: Mycobacterium tuberculosis; assay: Effective concentration required to reduce CFU of Mycobacterium tuberculosis Erdman (ATCC 35801) strain was determined in monolayers of mouse bone marrow macrophages; […]
[2] = tested on: Mycobacterium tuberculosis; assay: Effective concentration required to reduce CFU of Mycobacterium tuberculosis Erdman (ATCC 35801) strain was determined in monolayers of mouse bone marrow macrophages; Range is 0.5-1.5
[3] = tested on: Mycobacterium tuberculosis; assay: Effective concentration required to reduce CFU of Mycobacterium tuberculosis Erdman (ATCC 35801) strain was determined in monolayers of mouse bone marrow macrophages
[4] = tested on: Mycobacterium tuberculosis; assay: Effective concentration required compared to that of Minimum inhibition concentration required against Mycobacterium tuberculosis H37Rv strain was determined; Range is 0.6-1.2
[5] = tested on: Mycobacterium tuberculosis; assay: Minimum bactericidal concentration required against Mycobacterium tuberculosis H37Rv strain was determined in monolayers of mouse bone marrow macrophages

Compound | EC90 [1] [µg/mL] | EC99 [2] [µg/mL] | EC90 [3] [µg/mL] | EC99 [3] [µg/mL] | EC90/MIC [4] | MBC [5] [µg/mL]
CO[C@H]1/C=C/O[C@@]2(C)Oc3c(C)c(O)c4c(O)c(c(/C=N/N5CCN(C)CC5)c(O)c4c3C2=O)NC(=O)/C(C)=C\C=C\[C@H](C)[C@H](O)[C@@H](C)[C@@H](O)[C@@H](C)[C@H](OC(C)=O)[C@@H]1C [RIFAMPIN] | 0.1 (≈ 0.122 µM) | 1.5 | – | – | – | –
NNC(=O)c1ccncc1 [ISONIAZID] | – | – | 0.03 (≈ 0.219 µM) | 0.42 | 1.2 | 0.1 (≈ 0.729 µM)
